Source: US6355799B1, “Substituted benzene compounds, process for their preparation, and herbicidal and defoliant compositions containing them” (ISK Americas Incorporated, priority 1997, dated 2002)

Legend:
Type in all cases: in vivo
[1] = tested on: field corn (Zea mays L., var. Dekalb 535, CORN); experiment: Post-emerge test, crop safety; details: rating scale 0-100 (0 no damage, 100 complete death), 14 days after application
Method in brief: (§1)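 Herbicidal damage is scored 0 (none) to 100 (complete plant death) two weeks after a simulated field spray. Rates span 15–1000 g ai/ha, delivered in acetone at 187 l/ha. For post-emergence treatments, plants have 2–3 leaves and the spray carries 0.25% v/v non-ionic surfactant.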

[2] = tested on: upland rice (Oryza sp., var. Tebonnet, RICE); experiment: Post-emerge test, crop safety; details: rating scale 0-100 (0 no damage, 100 complete death), 14 days after application
Method in brief: as §1

[3] = tested on: field corn (Zea mays L., var. Dekalb 535, CORN); experiment: Pre-emerge test, crop safety; details: rating scale 0-100, 14 days after application
Method in brief: as §1

[4] = tested on: upland rice (Oryza sp., var. Tebonnet, RICE); experiment: Pre-emerge test, crop safety; details: rating scale 0-100, 14 days after application
Method in brief: as §1

[5] = tested on: redroot pigweed (Amaranthus retroflexus, AMARE); experiment: Post-emerge test, greenhouse herbicide activity screening; details: rating scale 0-100 (0 no damage, 100 complete death), 14 days after application
Method in brief: (§2)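 Compounds in acetone were track-sprayed at 15–1000 g ai/ha: pre-emergence onto soil sown the previous day, then top-watered to incorporate and later bottom-watered; post-emergence onto 2–3 leaf plants with 0.25% v/v surfactant, bottom-watered only. Ratings on a 0–100 phytotoxicity scale were taken at day 14.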

[6] = tested on: lambsquarters (Chenopodium album, CHEAL); experiment: as above; details: rating scale 0-100 (0 no damage, 100 complete death), 14 days after application
Method in brief: as §2

[7] = tested on: common ragweed (Ambrosia artemisizfolia L., AMBEL); experiment: as above; details: rating scale 0-100 (0 no damage, 100 complete death), 14 days after application
Method in brief: as §2

[8] = tested on: green foxtail (Setaria viridis, SETVI); experiment: as above; details: rating scale 0-100 (0 no damage, 100 complete death), 14 days after application
Method in brief: as §2

[9] = tested on: sicklepod (Cassia obtusifolia, CASOB); experiment: as above; details: rating scale 0-100 (0 no damage, 100 complete death), 14 days after application
Method in brief: as §2

[10] = tested on: ivyleaf morningglory (Ipomoea hederacea, IPOHE); experiment: as above; details: rating scale 0-100 (0 no damage, 100 complete death), 14 days after application
Method in brief: as §2

[11] = tested on: velvetleaf (Abutilon theophrasti, ABUTH); experiment: as above; details: rating scale 0-100 (0 no damage, 100 complete death), 14 days after application
Method in brief: as §2

[12] = tested on: large crabgrass (Digitaria sanguinalis, DIGSA); experiment: as above; details: rating scale 0-100 (0 no damage, 100 complete death), 14 days after application
Method in brief: as §2

[13] = tested on: johnsongrass (Sorghum halepense, SORHA); experiment: as above; details: rating scale 0-100 (0 no damage, 100 complete death), 14 days after application
Method in brief: as §2

[14] = tested on: barnyardgrass (Echinochloa crus-galli, ECHCG); experiment: as above; details: rating scale 0-100 (0 no damage, 100 complete death), 14 days after application
Method in brief: as §2

[15] = tested on: lambsquarters (Chenopodium album, CHEAL); experiment: Pre-emerge test, greenhouse herbicide activity screening; details: rating scale 0-100, 14 days after application
Method in brief: as §1

[16] = tested on: green foxtail (Setaria viridis, SETVI); experiment: as above; details: rating scale 0-100, 14 days after application
Method in brief: as §1

[17] = tested on: sicklepod (Cassia obtusifolia, CASOB); experiment: as above; details: rating scale 0-100, 14 days after application
Method in brief: as §1

[18] = tested on: ivyleaf morningglory (Ipomoea hederacea, IPOHE); experiment: as above; details: rating scale 0-100, 14 days after application
Method in brief: as §1

[19] = tested on: velvetleaf (Abutilon theophrasti, ABUTH); experiment: as above; details: rating scale 0-100, 14 days after application
Method in brief: as §1

[20] = tested on: large crabgrass (Digitaria sanguinalis, DIGSA); experiment: as above; details: rating scale 0-100, 14 days after application
Method in brief: as §1

[21] = tested on: johnsongrass (Sorghum halepense, SORHA); experiment: as above; details: rating scale 0-100, 14 days after application
Method in brief: as §1

[22] = tested on: barnyardgrass (Echinochloa crus-galli, ECHCG); experiment: as above; details: rating scale 0-100, 14 days after application
Method in brief: as §1

[23] = tested on: redroot pigweed (Amaranthus retroflexus, AMARE); experiment: as above; details: rating scale 0-100, 14 days after application
Method in brief: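 Rating: 0–100 visual injury, 14 DAA. Application: acetone, 187 l/ha, 15–1000 g ai/ha, flat-fan track sprayer with nozzle 40–45 cm above soil or canopy. Post-emerge runs used 0.25% v/v surfactant on 2–3 leaf plants.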

COc1c(Cl)cc(F)c(-n2c(=O)cc(C(F)(F)F)n(C)c2=O)c1CC(Cl)C(=O)OCC(F)(F)C(F)(F)C(F)(F)F (single isomer, unassigned) [14-24]
Post-emerge phytotoxicity rating CORN (crop damage) ([1]; Rate 63 g ai/ha): 10 | Post-emerge phytotoxicity rating CORN (crop damage) ([1]; Rate 250 g ai/ha): 20 | Post-emerge phytotoxicity rating RICE (crop damage) ([2]; Rate 63 g ai/ha): 10 | Post-emerge phytotoxicity rating RICE (crop damage) ([2]; Rate 250 g ai/ha): 50 | Pre-emerge phytotoxicity rating, crop damage CORN ([3]; 63 g ai/ha): 0 | Pre-emerge phytotoxicity rating, crop damage CORN ([3]; 250 g ai/ha): 0 | Pre-emerge phytotoxicity rating, crop damage RICE ([4]; 63 g ai/ha): 0 | Pre-emerge phytotoxicity rating, crop damage RICE ([4]; 250 g ai/ha): 20 | Post-emerge Herbicidal Activity, phytotoxicity rating AMARE ([5]; Rate 63 g ai/ha): 40 | Post-emerge Herbicidal Activity, phytotoxicity rating AMARE ([5]; Rate 250 g ai/ha): 90 | Post-emerge Herbicidal Activity, phytotoxicity rating CHEAL ([6]; Rate 63 g ai/ha): 80 | Post-emerge Herbicidal Activity, phytotoxicity rating CHEAL ([6]; Rate 250 g ai/ha): 90 | Post-emerge Herbicidal Activity, phytotoxicity rating AMBEL ([7]; Rate 63 g ai/ha): 50 | Post-emerge Herbicidal Activity, phytotoxicity rating AMBEL ([7]; Rate 250 g ai/ha): 50 | Post-emerge Herbicidal Activity, phytotoxicity rating SETVI ([8]; Rate 63 g ai/ha): 0 | Post-emerge Herbicidal Activity, phytotoxicity rating SETVI ([8]; Rate 250 g ai/ha): 50 | Post-emerge Herbicidal Activity, phytotoxicity rating CASOB ([9]; Rate 63 g ai/ha): 0 | Post-emerge Herbicidal Activity, phytotoxicity rating CASOB ([9]; Rate 250 g ai/ha): 0 | Post-emerge Herbicidal Activity, phytotoxicity rating IPOHE ([10]; Rate 63 g ai/ha): 20 | Post-emerge Herbicidal Activity, phytotoxicity rating IPOHE ([10]; Rate 250 g ai/ha): 40 | Post-emerge Herbicidal Activity, phytotoxicity rating ABUTH ([11]; Rate 63 g ai/ha): 70 | Post-emerge Herbicidal Activity, phytotoxicity rating ABUTH ([11]; Rate 250 g ai/ha): 100 | Post-emerge Herbicidal Activity, phytotoxicity rating DIGSA ([12]; Rate 63 g ai/ha): 95 | Post-emerge Herbicidal Activity, phytotoxicity rating DIGSA ([12]; Rate 250 g ai/ha): 100 | Post-emerge Herbicidal Activity, phytotoxicity rating SORHA ([13]; Rate 63 g ai/ha): 0 | Post-emerge Herbicidal Activity, phytotoxicity rating SORHA ([13]; Rate 250 g ai/ha): 50 | Post-emerge Herbicidal Activity, phytotoxicity rating ECHCG ([14]; Rate 63 g ai/ha): 100 | Post-emerge Herbicidal Activity, phytotoxicity rating ECHCG ([14]; Rate 250 g ai/ha): 100 | Pre-emerge herbicidal activity, phytotoxicity rating CHEAL ([15]; 63 g ai/ha): 0 | Pre-emerge herbicidal activity, phytotoxicity rating CHEAL ([15]; 250 g ai/ha): 50 | Pre-emerge herbicidal activity, phytotoxicity rating SETVI ([16]; 63 g ai/ha): 0 | Pre-emerge herbicidal activity, phytotoxicity rating SETVI ([16]; 250 g ai/ha): 0 | Pre-emerge herbicidal activity, phytotoxicity rating CASOB ([17]; 63 g ai/ha): 0 | Pre-emerge herbicidal activity, phytotoxicity rating CASOB ([17]; 250 g ai/ha): 30 | Pre-emerge herbicidal activity, phytotoxicity rating IPOHE ([18]; 63 g ai/ha): 0 | Pre-emerge herbicidal activity, phytotoxicity rating IPOHE ([18]; 250 g ai/ha): 0 | Pre-emerge herbicidal activity, phytotoxicity rating ABUTH ([19]; 63 g ai/ha): 0 | Pre-emerge herbicidal activity, phytotoxicity rating ABUTH ([19]; 250 g ai/ha): 80 | Pre-emerge herbicidal activity, phytotoxicity rating DIGSA ([20]; 63 g ai/ha): 20 | Pre-emerge herbicidal activity, phytotoxicity rating DIGSA ([20]; 250 g ai/ha): 80 | Pre-emerge herbicidal activity, phytotoxicity rating SORHA ([21]; 63 g ai/ha): 0 | Pre-emerge herbicidal activity, phytotoxicity rating SORHA ([21]; 250 g ai/ha): 0 | Pre-emerge herbicidal activity, phytotoxicity rating ECHCG ([22]; 63 g ai/ha): 0 | Pre-emerge herbicidal activity, phytotoxicity rating ECHCG ([22]; 250 g ai/ha): 0 | Pre-emerge herbicidal activity, phytotoxicity rating AMARE ([23]; 63 g ai/ha): 50 | Pre-emerge herbicidal activity, phytotoxicity rating AMARE ([23]; 250 g ai/ha): 100
